The results in this text go back to patent US9745321B2, “Fused pyrimidine compound, intermediate, preparation method therefor, and composition and application thereof” (SHANGHAI YINGLI PHARMACEUTICAL CO., LTD, priority 2013, dated 2017).

Assay [1] concerns the target PI3Kδ (Homo sapiens (Human), UniProt O00329). Briefly: PI3Kδ enzyme activity inhibition IC50 evaluation assay. The class given is biochemical. To be noted: luminescence, 25 μM ATP, 50 μM PIP2, 2 hrs room temperature. The protocol: (§1) PI3Kα, PI3Kδ, PI3Kβ and PI3Kγ Enzyme Activity Inhibition IC50 Evaluation Assay
• 1. Buffer preparation: 50 mM HEPES, pH 7.5, 3 mM MgCl2, 1 mM EGTA, 100 mM NaCl, 0.03% CHAPS. • 2. Compound was formulated in 100% DMSO in a concentration gradient, and added to a 384-well plate to a final DMSO concentration of 1%. • 3. PI3Kα, PI3Kδ, PI3Kβ and PI3Kγ enzymes were diluted to an optimum concentration with the following buffer: 50 mM HEPES, pH 7.5, 3 mM MgCl2, 1 mM EGTA, 100 mM NaCl, 0.03% CHAPS, 2 mM DTT, and transferred to a 384-well plate and incubated with the compound for a certain time. • 4. […] For PI3Kβ and PI3Kγ, it was still necessary to further add 10 μL ADP-Glo Detection Reagent, and then equilibrated at room temperature for 30 minutes. • 5. Read Luminescense with FlexStation, and calculate the inhibition rate as the average of two tests.

Assay [2] has as its target PI3Kα (Homo sapiens (Human), UniProt P42336). Nature of the assay: PI3Kα enzyme activity inhibition IC50 evaluation assay. The class given is biochemical. Particulars: ratio PI3Kα vs PI3Kδ. The protocol:
as §1
• 1. Buffer preparation: 50 mM HEPES, pH 7.5, 3 mM MgCl2, 1 mM EGTA, 100 mM NaCl, 0.03% CHAPS. • 2. Compound was formulated in 100% DMSO in a concentration gradient, and added to a 384-well plate to a final DMSO concentration of 1%. • 3. PI3Kα, PI3Kδ, PI3Kβ and PI3Kγ enzymes were diluted to an optimum concentration with the following buffer: 50 mM HEPES, pH 7.5, 3 mM MgCl2, 1 mM EGTA, 100 mM NaCl, 0.03% CHAPS, 2 mM DTT, and transferred to a 384-well plate and incubated with the compound for a certain time. • 4. Substrate was diluted to an optimum concentration with the following buffer: 50 mM HEPES, pH 7.5, 3 mM MgCl2, 1 mM EGTA, 100 mM NaCl, 0.03% CHAPS, 2 mM DTT, 50 μM PIP2, 25 μM ATP; then added to a 384-well plate to initiate the reaction, and for PI3Kα, PI3Kβ and PI3Kγ at room temperature reacted for 1 hr, for PI3Kδ at room temperature reacted for 2 hrs. For PI3Kβ and PI3Kγ, it was still necessary to further add 10 μL ADP-Glo Detection Reagent, and then equilibrated at room temperature for 30 minutes. • 5. Read Luminescense with FlexStation, and calculate the inhibition rate as the average of two tests.

Sequence of PI3Kδ (O00329 whole entry): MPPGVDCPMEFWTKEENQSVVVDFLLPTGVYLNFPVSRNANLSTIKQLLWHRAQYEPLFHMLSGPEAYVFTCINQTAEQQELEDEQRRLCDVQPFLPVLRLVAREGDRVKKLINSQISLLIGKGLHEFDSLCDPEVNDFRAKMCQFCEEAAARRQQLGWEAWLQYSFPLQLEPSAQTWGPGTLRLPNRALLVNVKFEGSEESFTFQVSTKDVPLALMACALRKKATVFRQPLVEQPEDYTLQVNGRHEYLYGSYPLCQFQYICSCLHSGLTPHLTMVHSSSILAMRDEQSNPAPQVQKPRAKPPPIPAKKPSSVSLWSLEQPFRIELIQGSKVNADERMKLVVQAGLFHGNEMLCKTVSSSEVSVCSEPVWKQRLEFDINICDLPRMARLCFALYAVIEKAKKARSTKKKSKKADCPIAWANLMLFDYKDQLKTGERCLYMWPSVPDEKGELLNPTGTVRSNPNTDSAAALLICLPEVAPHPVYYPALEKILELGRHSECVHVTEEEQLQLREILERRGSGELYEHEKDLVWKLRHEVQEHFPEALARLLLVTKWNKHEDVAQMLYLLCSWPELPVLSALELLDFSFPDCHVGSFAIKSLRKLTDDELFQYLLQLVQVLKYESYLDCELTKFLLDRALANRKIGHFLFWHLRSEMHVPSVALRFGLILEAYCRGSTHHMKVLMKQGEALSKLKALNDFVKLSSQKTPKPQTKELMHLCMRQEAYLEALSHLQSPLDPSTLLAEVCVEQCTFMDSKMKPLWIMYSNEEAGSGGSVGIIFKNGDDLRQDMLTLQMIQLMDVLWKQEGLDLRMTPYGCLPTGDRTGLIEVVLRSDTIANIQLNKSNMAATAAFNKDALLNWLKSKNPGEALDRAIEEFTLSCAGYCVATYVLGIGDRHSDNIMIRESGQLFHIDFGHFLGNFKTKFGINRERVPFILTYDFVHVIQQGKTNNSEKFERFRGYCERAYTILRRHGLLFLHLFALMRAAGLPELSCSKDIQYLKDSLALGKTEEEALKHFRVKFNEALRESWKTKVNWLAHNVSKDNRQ
Sequence of PI3Kδ (P27986 whole entry partner): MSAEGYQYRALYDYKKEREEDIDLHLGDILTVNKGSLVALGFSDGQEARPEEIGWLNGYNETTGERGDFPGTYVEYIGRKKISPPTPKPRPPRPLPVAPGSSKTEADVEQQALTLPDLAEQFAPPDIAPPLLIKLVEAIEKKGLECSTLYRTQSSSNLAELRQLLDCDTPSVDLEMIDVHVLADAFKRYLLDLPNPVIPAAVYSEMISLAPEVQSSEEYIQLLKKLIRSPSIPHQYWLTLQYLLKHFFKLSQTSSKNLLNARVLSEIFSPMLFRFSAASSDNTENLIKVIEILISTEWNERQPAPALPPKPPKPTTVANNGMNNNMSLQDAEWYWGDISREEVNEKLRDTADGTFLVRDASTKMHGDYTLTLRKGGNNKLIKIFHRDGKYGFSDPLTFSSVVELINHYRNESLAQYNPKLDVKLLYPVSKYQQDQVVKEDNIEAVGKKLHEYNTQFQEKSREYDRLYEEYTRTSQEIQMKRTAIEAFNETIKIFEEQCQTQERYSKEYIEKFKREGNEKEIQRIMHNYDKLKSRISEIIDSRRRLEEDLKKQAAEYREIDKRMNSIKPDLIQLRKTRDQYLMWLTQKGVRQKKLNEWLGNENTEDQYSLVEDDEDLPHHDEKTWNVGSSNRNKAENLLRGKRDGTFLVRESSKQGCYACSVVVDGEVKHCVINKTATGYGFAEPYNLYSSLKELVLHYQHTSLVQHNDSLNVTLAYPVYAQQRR
Sequence of PI3Kα (P42336 whole entry): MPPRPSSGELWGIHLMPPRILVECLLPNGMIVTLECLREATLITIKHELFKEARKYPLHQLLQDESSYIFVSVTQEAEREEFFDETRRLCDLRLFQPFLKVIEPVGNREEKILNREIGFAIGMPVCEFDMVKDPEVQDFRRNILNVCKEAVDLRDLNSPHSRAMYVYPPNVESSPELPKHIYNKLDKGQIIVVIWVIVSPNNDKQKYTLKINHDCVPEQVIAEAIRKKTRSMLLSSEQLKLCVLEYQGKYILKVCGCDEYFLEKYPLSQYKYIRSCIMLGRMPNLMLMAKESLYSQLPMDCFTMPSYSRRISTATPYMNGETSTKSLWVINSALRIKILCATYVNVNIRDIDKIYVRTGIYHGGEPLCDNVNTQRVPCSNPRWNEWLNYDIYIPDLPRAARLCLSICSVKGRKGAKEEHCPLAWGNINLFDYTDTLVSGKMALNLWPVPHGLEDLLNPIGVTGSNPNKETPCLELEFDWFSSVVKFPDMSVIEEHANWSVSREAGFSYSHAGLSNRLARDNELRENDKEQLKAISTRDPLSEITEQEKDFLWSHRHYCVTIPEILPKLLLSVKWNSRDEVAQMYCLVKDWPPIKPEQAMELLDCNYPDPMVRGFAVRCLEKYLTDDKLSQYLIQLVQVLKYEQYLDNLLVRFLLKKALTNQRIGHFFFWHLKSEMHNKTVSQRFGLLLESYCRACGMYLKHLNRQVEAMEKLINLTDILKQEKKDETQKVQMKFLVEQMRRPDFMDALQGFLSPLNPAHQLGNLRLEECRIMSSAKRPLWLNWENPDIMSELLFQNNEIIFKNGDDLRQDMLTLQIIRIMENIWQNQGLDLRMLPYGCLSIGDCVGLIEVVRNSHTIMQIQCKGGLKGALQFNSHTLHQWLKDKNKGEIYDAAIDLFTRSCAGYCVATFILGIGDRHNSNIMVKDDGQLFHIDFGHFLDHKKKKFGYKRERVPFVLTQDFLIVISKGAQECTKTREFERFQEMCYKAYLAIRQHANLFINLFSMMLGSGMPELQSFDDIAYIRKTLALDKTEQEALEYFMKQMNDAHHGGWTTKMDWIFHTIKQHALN
Sequence of PI3Kα (P27986 whole entry partner): as the sequence (P27986 whole entry partner) above

By IC50 is commonly meant the concentration that gives 50% inhibition. Take `CS(=O)(=O)N1CCN(Cc2csc3c(-c4c(F)ccc5[nH]ccc45)nc(N4CCOCC4)nc23)CC1` [Compound 1]: the midpoint of inhibition in assay [1], the IC50, lay at 105 nM. For the same molecule, the α/δ selectivity in assay [2] was 12.
The matching figures for `Cc1cc2c(-c3nc(N4CCOCC4)nc4c(CN5CCC(C(C)(C)O)CC5)csc34)cccc2[nH]1` [Compound 6]: 145 nM and above 69.
In assay [1], `c1cc(-c2nc(N3CCOCC3)nc3c(CN4CCC(N5CCOCC5)CC4)csc23)c2cc[nH]c2c1` [Compound 9] gave an IC50 of 50 nM. For the same molecule, in assay [2], the α/δ selectivity is above 200.
On to `O=C(CO)N1CCN(Cc2csc3c(-c4cccc5[nH]ccc45)nc(N4CCOCC4)nc23)CC1` [Compound 12], for which the half-maximal inhibitory concentration (IC50) in assay [1] amounted to 17 nM. In addition, in assay [2], the α/δ selectivity stood at 133.
Consider `CC(C)(O)CN1CCN(Cc2csc3c(-c4cccc5[nH]ccc45)nc(N4CCOCC4)nc23)CC1` [Compound 13], for which the IC50 in assay [1] amounted to 52 nM. Besides, the α/δ selectivity in assay [2] is above 192.
The matching figures for `CC(C)(C)N1CCN(Cc2csc3c(-c4cccc5[nH]ccc45)nc(N4CCOCC4)nc23)CC1` [Compound 15]: 34 nM and above 294.
Turning to `Cc1oc2ccccc2c1-c1nc(N2CCOCC2)nc2c(CN3CCN(C(=O)C(C)C)CC3)csc12` [Compound 16], the concentration for half-maximal inhibition (IC50) in assay [1] stood at 567 nM. Moreover, the α/δ selectivity in assay [2] worked out at 18.
As to `CC(C)(O)C1CCN(Cc2csc3c(-c4ccnc5[nH]ccc45)nc(N4CCOCC4)nc23)CC1` [Compound 17], half-maximal inhibition in assay [1] (IC50) required 53 nM. The α/δ selectivity in assay [2] is reported as 74.
For `CCC(=O)N1CCN(Cc2csc3c(-c4cnn(C)c4)nc(N4CCOCC4)nc23)CC1` [Compound 18], in that order: 86 nM and 58.
The matching figures for `CC(C)C(=O)N1CCN(Cc2csc3c(-c4cnn(C)c4)nc(N4CCOCC4)nc23)CC1` [Compound 19]: 87 nM and 49.
The matching figures for `Cc1cn(-c2nc(N3CCOCC3)nc3c(CN4CCN(C(=O)C(C)C)CC4)csc23)c(C)n1` [Compound 20]: 66 nM and 54.
For the molecule `Cc1nn(C)c(C)c1-c1nc(N2CCOCC2)nc2c(CN3CCN(C(=O)C(C)C)CC3)csc12` [Compound 21], the midpoint of inhibition in assay [1], the IC50, lay at 150 nM. In addition, the α/δ selectivity in assay [2] was determined as 19.
On to `Cc1nc(Cl)cn1-c1nc(N2CCOCC2)nc2c(CN3CCN(C(=O)C(C)C)CC3)csc12` [Compound 23], for which the IC50 in assay [1] turned out to be 27 nM. Besides, in assay [2], the α/δ selectivity was found to be 40.
The matching figures for `COc1ncc(-c2nc(N3CCOCC3)nc3c(CN4C[C@@H](C)O[C@@H](C)C4)csc23)cc1NS(C)(=O)=O` [Compound 27]: 99 nM and 10.
For `COc1ncc(-c2nc(N3CCOCC3)nc3c(CN4CCN(C(=O)OC(C)(C)C)CC4)csc23)cc1NS(C)(=O)=O` [Compound 28], in that order: 35 nM and 56.
The molecule `COc1ncc(-c2nc(N3CCOCC3)nc3c(CN4CCN(C5COC5)CC4)csc23)cc1NS(C)(=O)=O` [Compound 29] came in with an IC50 in assay [1] of 6.9 nM. Further, in assay [2], the α/δ selectivity amounted to 34.
The matching figures for `CC(C)C(=O)N1CCN(Cc2csc3c(-n4ccnc4C(F)(F)F)nc(N4CCOCC4)nc23)CC1` [Compound 30]: 71 nM and 36.
Take `CC(C)C(=O)N1CCN(Cc2csc3c(-c4cncc(NS(C)(=O)=O)c4)nc(N4CCOCC4)nc23)CC1` [Compound 31]: half-maximal inhibition in assay [1] (IC50) was put at 4.9 nM. Also, the α/δ selectivity in assay [2] is 10.
For `COc1ncc(-c2nc(N3CCOCC3)nc3c(CN4CCN(C(C)=O)CC4)csc23)cc1NS(C)(=O)=O` [Compound 32], in that order: 4.3 nM and 15.
As for `COc1ncc(-c2nc(N3CCOCC3)nc3c(CN4CCN(C5CCOCC5)CC4)csc23)cc1NS(C)(=O)=O` [Compound 33], inhibition in assay [1] was half-maximal at 4.2 nM (IC50). In addition, the α/δ selectivity in assay [2] came to 51.
